Structures are written as SMILES.

From patent publication US8796256B2 (Janssen Pharmaceutica NV, priority 2010, dated 2014) come the findings set out here.

The target in this test is T1, ERR1 (also known as ERR-α or ERR-1) (Homo sapiens, UniProt P11474).
T1 sequence (P11474 193-421 limits assumed): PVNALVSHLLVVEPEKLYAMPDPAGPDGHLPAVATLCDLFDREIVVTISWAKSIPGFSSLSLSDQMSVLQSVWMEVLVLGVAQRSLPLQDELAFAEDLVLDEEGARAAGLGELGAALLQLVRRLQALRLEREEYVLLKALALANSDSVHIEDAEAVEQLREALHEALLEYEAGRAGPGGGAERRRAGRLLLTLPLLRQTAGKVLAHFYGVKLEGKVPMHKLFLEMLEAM
Put plainly: TR-FRET assay (disruption of co-activator peptide binding to ERR1 LBD). Format: biochemical. The conditions noted are these: 6 nM 6His-ERR1LBD, 6 nM GST-SRC-2 peptide; average of 3 independent experiments. The method in brief: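 His-tagged ERR1 ligand-binding domain and GST-labelled SRC-2 peptide, each 6 nM, equilibrated at 25° C for 4-18 h in Tris pH 8/Hepes/KCl/DTT/delipidated BSA buffer. Compound-induced loss of co-activator binding read as Eu cryptate→XL665 energy transfer; values from hyperbolic curve fits averaged over 3 independent runs.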
Broadly, the EC50 is the concentration giving half of the maximal effect. Lower therefore signals greater potency. Compound `COc1ccc(Cn2ncc3cc(/C=C4\SC(=O)N(C[C@@H]5CCCN5C)C4=O)ccc32)c(C(F)(F)F)c1` [Compound 23, (5Z)-5-({1-[4-Methoxy-2-(trifluoromethyl)benzyl]-1H-indazol-5-yl}methylidene)-3-{[(2S)-1-methylpyrrolidin-2-yl]methyl}-1,3-thiazolidine-2,4-dione] displayed an EC50 of 45 nM.

In turn, `O=C1S/C(=C\c2ccc3c(cnn3[C@@H]3CCc4cc(Cl)ccc43)c2)C(=O)N1CCN1CCCC1` [Compound 178, (5Z)-5-({1-[(1R)-5-Chloro-2,3-dihydro-1H-inden-1-yl]-1H-indazol-5-yl}methylidene)-3-(2-pyrrolidin-1-ylethyl)-1,3-thiazolidine-2,4-dione] came in with an EC50 of 9700 nM. The compound `C[C@@H](N)CN1C(=O)S/C(=C\c2ccc3c(cnn3Cc3ccc(C(F)(F)F)cc3C(F)(F)F)c2)C1=O` [Compound 80, (5Z)-3-[(2R)-2-Aminopropyl]-5-({1-[2,4-bis(trifluoromethyl)benzyl]-1H-indazol-5-yl}methylidene)-1,3-thiazolidine-2,4-dione] registered an EC50 of 41 nM. With `O=C1S/C(=C\c2ccc3c(cnn3Cc3ccc(Cl)cc3C(F)(F)F)c2)C(=O)N1C[C@@H]1CSCCN1` [Compound 98, (5Z)-5-({1-[4-Chloro-2-(trifluoromethyl)benzyl]-1H-indazol-5-yl}methylidene)-3-[(3R)-thiomorpholin-3-ylmethyl]-1,3-thiazolidine-2,4-dione], the midpoint of the response, the EC50, lay at 980 nM. Turning to `O=C1S/C(=C\c2ccc3c(cnn3Cc3ccc(Cl)cc3C(F)(F)F)c2)C(=O)N1C1(C(=O)O)CCCCC1` [Compound 218, 1-[(5Z)-5-({1-[4-Chloro-2-(trifluoromethyl)benzyl]-1H-indazol-5-yl}methylidene)-2,4-dioxo-1,3-thiazolidin-3-yl]cyclohexanecarboxylic acid], the EC50 was determined as 88 nM. In turn, `N=C(N)NC(=O)CN1C(=O)S/C(=C\c2ccc3c(cnn3Cc3ccc(Cl)cc3C(F)(F)F)c2)C1=O` [Compound 56, N-Carbamimidoyl-2-[(5Z)-5-({1-[4-chloro-2-(trifluoromethyl)benzyl]-1H-indazol-5-yl}methylidene)-2,4-dioxo-1,3-thiazolidin-3-yl]acetamide] displayed an EC50 of 22 nM. In turn, `COC1CCN(S(=O)(=O)NC(=O)CN2C(=O)S/C(=C\c3ccc4c(cnn4Cc4ccc(Cl)cc4C(F)(F)F)c3)C2=O)CC1` [Compound 58, 2-[(5Z)-5-({1-[4-chloro-2-(trifluoromethyl)benzyl]-1H-indazol-5-yl}methylidene)-2,4-dioxo-1,3-thiazolidin-3-yl]-N-[(4-methoxypiperidin-1-yl)sulfonyl]acetamide] showed an EC50 of 44 nM. The figure for `O=C(O)CN1C(=O)S/C(=C\c2ccc3c(cnn3[C@H]3CCc4cc(Cl)ccc43)c2)C1=O` [Compound 173, [(5Z)-5-({1-[(1S)-5-Chloro-2,3-dihydro-1H-inden-1-yl]-1H-indazol-5-yl}methylidene)-2,4-dioxo-1,3-thiazolidin-3-yl]acetic acid] is 70 nM. In turn, `O=C1S/C(=C\c2ccc3c(cnn3Cc3ccc(Cl)cc3C(F)(F)F)c2)C(=O)N1CC1(F)CCNCC1` [Compound 303, (5Z)-5-({1-[4-Chloro-2-(trifluoromethyl)benzyl]-1H-indazol-5-yl}methylidene)-3-[(4-fluoropiperidin-4-yl)methyl]-1,3-thiazolidine-2,4-dione] gave an EC50 of 26 nM.

`O=C1S/C(=C\c2ccc3c(cnn3Cc3ccc(Cl)cc3C(F)(F)F)c2)C(=O)N1CC(O)CO` (centres unmarked) [Compound 43, (5Z)-5-({1-[4-Chloro-2-(trifluoromethyl)benzyl]-1H-indazol-5-yl}methylidene)-3-(2,3-dihydroxypropyl)-1,3-thiazolidine-2,4-dione] showed an EC50 of 16 nM. `COC(=O)CN1C(=O)S/C(=C\c2ccc3c(ccn3Cc3ccc(C(F)(F)F)cc3C(F)(F)F)c2)C1=O` [Compound 238, Methyl {(5Z)-5-[(1-{[2,4-bis(trifluoromethyl)phenyl]methyl}-1H-indol-5-yl)methylidene]-2,4-dioxo-1,3-thiazolidin-3-yl}acetate] yielded an EC50 of 1800 nM.
